{"source": "ChEMBL document CHEMBL1131745", "about": "“Novel C-ring analogues of 20(S)-camptothecin-part-2: synthesis and in vitro cytotoxicity of 5-C-substituted 20(S)-camptothecin analogues” (1999)", "format_in_all_cases": "functional", "key": {"UACC-62": {"test_system": "UACC-62", "assay": "In vitro anti-cancer activity against UACC 62(Melanoma) human tumor cell line"}, "OVCAR-8 [1]": {"test_system": "OVCAR-8", "assay": "In vitro anti-cancer activity against OVCAR 8(Ovarian) human tumor cell lines"}, "SF-268 [2]": {"test_system": "SF-268", "assay": "In vitro anti-cancer activity against SF 268(CNS) human tumor cell lines"}, "ACHN": {"test_system": "ACHN", "assay": "In vitro anti-cancer activity against ACHN(Renal) human tumor cell line"}, "DU-145": {"test_system": "DU-145", "assay": "In vitro anti-cancer activity against DU-145 (Prostate) human tumor cell line"}, "HOP-62": {"test_system": "HOP-62", "assay": "In vitro anti-cancer activity against HOP 62(Lung) human tumor cell line"}, "NCI/ADR-RES [3]": {"test_system": "NCI/ADR-RES", "assay": "In vitro anti-cancer activity against MCF-7/ADR (Breast) human tumor cell lines"}, "OVCAR-8 [4]": {"test_system": "OVCAR-8", "assay": "In vitro anti-cancer activity against OVCAR 8(Ovarian) human tumor cell line"}, "NCI/ADR-RES [5]": {"test_system": "NCI/ADR-RES", "assay": "In vitro anti-cancer activity against MCF-7/ADR (Breast) human tumor cell line"}, "SF-268 [6]": {"test_system": "SF-268", "assay": "In vitro anti-cancer activity against SF 268(CNS) human tumor cell line"}}, "data": [{"smiles": "CC[C@@]1(O)C(=O)OCc2c1cc1n(c2=O)C(CC(=O)OC)c2cc3cc([N+](=O)[O-])ccc3nc2-1", "note": "(stereo not given in full)", "values": [{"measurement": "GI50", "setting": "UACC-62", "result": 4040, "unit": "nM"}, {"measurement": "GI50", "setting": "OVCAR-8 [1]", "result": 12600, "unit": "nM"}, {"measurement": "GI50", "setting": "SF-268 [2]", "result": 26200, "unit": "nM"}, {"measurement": "GI50", "setting": "ACHN", "result": 4610, "unit": "nM"}, {"measurement": "GI50", "setting": "DU-145", "result": 8510, "unit": "nM"}, {"measurement": "GI50", "setting": "HOP-62", "result": 5250, "unit": "nM"}]}, {"smiles": "CC[C@@]1(O)C(=O)OCc2c1cc1n(c2=O)C(CC(=O)OC)c2cc3ccccc3nc2-1", "note": "(stereo not given in full)", "values": [{"measurement": "GI50", "setting": "UACC-62", "result": 6440, "unit": "nM"}, {"measurement": "GI50", "setting": "OVCAR-8 [1]", "result": 16300, "unit": "nM"}, {"measurement": "GI50", "setting": "SF-268 [2]", "result": 18600, "unit": "nM"}, {"measurement": "GI50", "setting": "ACHN", "result": 5290, "unit": "nM"}, {"measurement": "GI50", "setting": "DU-145", "result": 15500, "unit": "nM"}, {"measurement": "GI50", "setting": "NCI/ADR-RES [3]", "result": 7.2, "unit": "µM"}]}, {"smiles": "CC[C@@]1(O)C(=O)OCc2c1cc1n(c2=O)C(CC(=O)OCCF)c2cc3ccccc3nc2-1", "note": "(stereo not given in full)", "values": [{"measurement": "GI50", "setting": "UACC-62", "result": 200, "unit": "nM"}, {"measurement": "GI50", "setting": "OVCAR-8 [1]", "result": 40, "unit": "nM"}, {"measurement": "GI50", "setting": "SF-268 [2]", "result": 50, "unit": "nM"}, {"measurement": "GI50", "setting": "ACHN", "result": 80, "unit": "nM"}, {"measurement": "GI50", "setting": "DU-145", "result": 100, "unit": "nM"}, {"measurement": "GI50", "setting": "NCI/ADR-RES [3]", "result": 6, "unit": "µM"}, {"measurement": "GI50", "setting": "HOP-62", "result": "> 30000", "unit": "nM"}]}, {"smiles": "CC[C@@]1(O)C(=O)OCc2c1cc1n(c2=O)C(CC(N)=O)c2cc3ccccc3nc2-1", "note": "(stereo not given in full)", "values": [{"measurement": "GI50", "setting": "UACC-62", "result": 16000, "unit": "nM"}, {"measurement": "GI50", "setting": "OVCAR-8 [1]", "result": 20000, "unit": "nM"}, {"measurement": "GI50", "setting": "SF-268 [2]", "result": 29000, "unit": "nM"}, {"measurement": "GI50", "setting": "ACHN", "result": 16000, "unit": "nM"}, {"measurement": "GI50", "setting": "DU-145", "result": 12000, "unit": "nM"}, {"measurement": "GI50", "setting": "HOP-62", "result": "> 30000", "unit": "nM"}]}, {"smiles": "CC[C@@]1(O)C(=O)OCc2c1cc1n(c2=O)C(CC(=O)OCC(F)(F)F)c2cc3ccccc3nc2-1", "note": "(stereo not given in full)", "values": [{"measurement": "GI50", "setting": "UACC-62", "result": 300, "unit": "nM"}, {"measurement": "GI50", "setting": "OVCAR-8 [1]", "result": 1120, "unit": "nM"}, {"measurement": "GI50", "setting": "SF-268 [2]", "result": 140, "unit": "nM"}, {"measurement": "GI50", "setting": "ACHN", "result": 170, "unit": "nM"}, {"measurement": "GI50", "setting": "DU-145", "result": 280, "unit": "nM"}, {"measurement": "GI50", "setting": "NCI/ADR-RES [3]", "result": 0.5, "unit": "µM"}, {"measurement": "GI50", "setting": "HOP-62", "result": 130, "unit": "nM"}]}, {"smiles": "CC[C@@]1(O)C(=O)OCc2c1cc1n(c2=O)C(CC(=O)N2CCCC2)c2cc3ccccc3nc2-1", "note": "(stereo not given in full)", "values": [{"measurement": "GI50", "setting": "UACC-62", "result": 410, "unit": "nM"}, {"measurement": "GI50", "setting": "OVCAR-8 [1]", "result": 760, "unit": "nM"}, {"measurement": "GI50", "setting": "ACHN", "result": 210, "unit": "nM"}, {"measurement": "GI50", "setting": "DU-145", "result": 450, "unit": "nM"}, {"measurement": "GI50", "setting": "NCI/ADR-RES [3]", "result": 0.79, "unit": "µM"}, {"measurement": "GI50", "setting": "HOP-62", "result": 290, "unit": "nM"}]}, {"smiles": "CC[C@@]1(O)C(=O)OCc2c1cc1n(c2=O)C(CC(C)=O)c2cc3c(O)cccc3nc2-1", "note": "(stereo not given in full)", "values": [{"measurement": "GI50", "setting": "UACC-62", "result": 7500, "unit": "nM"}, {"measurement": "GI50", "setting": "OVCAR-8 [1]", "result": 3500, "unit": "nM"}, {"measurement": "GI50", "setting": "SF-268 [2]", "result": 4000, "unit": "nM"}, {"measurement": "GI50", "setting": "ACHN", "result": 1000, "unit": "nM"}, {"measurement": "GI50", "setting": "DU-145", "result": 2000, "unit": "nM"}, {"measurement": "GI50", "setting": "NCI/ADR-RES [3]", "result": 5, "unit": "µM"}, {"measurement": "GI50", "setting": "HOP-62", "result": 4000, "unit": "nM"}]}, {"smiles": "CC[C@@]1(O)C(=O)OCc2c1cc1n(c2=O)C(CC(=O)OC)c2cc3c(O)cccc3nc2-1", "note": "(stereo not given in full)", "values": [{"measurement": "GI50", "setting": "UACC-62", "result": 1720, "unit": "nM"}, {"measurement": "GI50", "setting": "OVCAR-8 [1]", "result": 1720, "unit": "nM"}, {"measurement": "GI50", "setting": "SF-268 [2]", "result": 2320, "unit": "nM"}, {"measurement": "GI50", "setting": "ACHN", "result": 440, "unit": "nM"}, {"measurement": "GI50", "setting": "DU-145", "result": 600, "unit": "nM"}, {"measurement": "GI50", "setting": "HOP-62", "result": 2090, "unit": "nM"}]}, {"smiles": "CC[C@@]1(O)C(=O)OCc2c1cc1n(c2=O)C(CC(=O)N2CCCCC2)c2cc3ccccc3nc2-1", "note": "(stereo not given in full)", "values": [{"measurement": "GI50", "setting": "UACC-62", "result": 330, "unit": "nM"}, {"measurement": "GI50", "setting": "OVCAR-8 [1]", "result": 3570, "unit": "nM"}, {"measurement": "GI50", "setting": "SF-268 [2]", "result": 650, "unit": "nM"}, {"measurement": "GI50", "setting": "ACHN", "result": 340, "unit": "nM"}, {"measurement": "GI50", "setting": "DU-145", "result": 320, "unit": "nM"}, {"measurement": "GI50", "setting": "NCI/ADR-RES [3]", "result": 3.03, "unit": "µM"}, {"measurement": "GI50", "setting": "HOP-62", "result": 530, "unit": "nM"}]}, {"smiles": "CC[C@@]1(O)C(=O)OCc2c1cc1n(c2=O)C(CC(=O)OCCO)c2cc3ccccc3nc2-1", "note": "(stereo not given in full)", "values": [{"measurement": "GI50", "setting": "UACC-62", "result": 200, "unit": "nM"}, {"measurement": "GI50", "setting": "OVCAR-8 [1]", "result": 250, "unit": "nM"}, {"measurement": "GI50", "setting": "SF-268 [2]", "result": 1000, "unit": "nM"}, {"measurement": "GI50", "setting": "ACHN", "result": 10000, "unit": "nM"}, {"measurement": "GI50", "setting": "DU-145", "result": 1000, "unit": "nM"}, {"measurement": "GI50", "setting": "NCI/ADR-RES [3]", "result": 6, "unit": "µM"}, {"measurement": "GI50", "setting": "HOP-62", "result": "> 30000", "unit": "nM"}]}, {"smiles": "CC[C@@]1(O)C(=O)OCc2c1cc1n(c2=O)C(CC(C)=O)c2cc3cc([N+](=O)[O-])ccc3nc2-1", "note": "(stereo not given in full)", "values": [{"measurement": "GI50", "setting": "UACC-62", "result": 300, "unit": "nM"}, {"measurement": "GI50", "setting": "OVCAR-8 [1]", "result": 1120, "unit": "nM"}, {"measurement": "GI50", "setting": "SF-268 [2]", "result": 140, "unit": "nM"}, {"measurement": "GI50", "setting": "ACHN", "result": 170, "unit": "nM"}, {"measurement": "GI50", "setting": "DU-145", "result": 280, "unit": "nM"}, {"measurement": "GI50", "setting": "NCI/ADR-RES [3]", "result": 0.5, "unit": "µM"}, {"measurement": "GI50", "setting": "HOP-62", "result": 130, "unit": "nM"}]}, {"smiles": "CC[C@@]1(O)C(=O)OCc2c1cc1n(c2=O)C(CC(C)=O)c2cc3ccccc3nc2-1", "note": "(stereo not given in full)", "values": [{"measurement": "GI50", "setting": "UACC-62", "result": 3540, "unit": "nM"}, {"measurement": "GI50", "setting": "OVCAR-8 [1]", "result": 7390, "unit": "nM"}, {"measurement": "GI50", "setting": "SF-268 [2]", "result": 7150, "unit": "nM"}, {"measurement": "GI50", "setting": "ACHN", "result": 3030, "unit": "nM"}, {"measurement": "GI50", "setting": "DU-145", "result": 3920, "unit": "nM"}, {"measurement": "GI50", "setting": "NCI/ADR-RES [3]", "result": 3.88, "unit": "µM"}]}, {"smiles": "CC[C@@]1(O)C(=O)OCc2c1cc1n(c2=O)Cc2cc3c(CN(C)C)c(O)ccc3nc2-1", "note": "[TOPOTECAN]", "values": [{"measurement": "GI50", "setting": "OVCAR-8 [4]", "result": 200, "unit": "nM"}, {"measurement": "GI50", "setting": "UACC-62", "result": 30, "unit": "nM"}, {"measurement": "GI50", "setting": "ACHN", "result": 40, "unit": "nM"}, {"measurement": "GI50", "setting": "DU-145", "result": 40, "unit": "nM"}, {"measurement": "GI50", "setting": "NCI/ADR-RES [5]", "result": 70, "unit": "nM"}, {"measurement": "GI50", "setting": "HOP-62", "result": 50, "unit": "nM"}, {"measurement": "GI50", "setting": "SF-268 [6]", "result": 80, "unit": "nM"}]}]}
